Test results taken from US11617748B2, “Meclozine derivatives and diclazuril derivatives for use in the prevention and/or the treatment of disorders associated to the inflammation induced by P. acnes” (priority 2016, dated 2023).

Assays:
[1] = test system: IL-1β production; assay: P. acnes-induced IL-1β production in ThP-1 monocytes (ELISA); format: cell-based; settings: Homo sapiens; ThP-1 cells pre-treated 24 h, then stimulated with P. acnes; read-out: IC50 of inhibition of IL-1β production
Description: Bacterial strain and conditions of growth. P. acnes strain 6919 was obtained from the American Type Culture Collection (Manassas, Va.) and P. acnes strains RON and PIE were isolated from patient with joint infection. All strains were grown under anaerobic conditions in reinforced clostridial liquid and solid medium (RCM) (Difco Laboratories, Detroit, Mich.). P. acnes was transferred from the bacterial stock onto RCM agar plate and incubated for 5 days under anaerobic condition by using a GasPak™ EZ Anaerobic Container System (Becton Dickinson & Co, Sparks Md., USA). A single colony was transferred into 100 ml RCM and grown as described above. Bacterial suspension was then store frozen at −80° C. in presence of 10% glycerol final. […]
ELISA. Human IL-1β, IL-8, hBD-2 and TNF-α protein concentration were measured in the supernatants of stimulated cells using various ELISA Sets (all from Ready-Set-Go from eBioscience, except hBD-2 measurements: Human DEFB4A/BD-2 ELISA Kit from LSBio) according to the manufacturer's instructions. […] The optical density was determined at 450 nm at a wavelength correction of 540 nm.
Both molecules, were tested to inhibit the production of IL-1β by the monocytic cell line. […] The production of IL-1β was measured on culture supernatant by ELISA and the viability of cells was estimated by MTT assay (FIG. 2).

[2] = test system: mTOR; assay: Western blot of p-mTOR/mTOR in P. acnes-stimulated HaCaT cells; format: cell-based, human; settings: 25 μM, 24 h pre-treatment
Description: Western Blot analysis. Whole cell protein extracts (25 μg) were separated by electrophoresis (LDS-PAGE) under denaturing conditions with NuPAGE Novex 4-12% Bis-Tris gel (1 mm, 12 wells, Invitrogen, UK) and proteins were transferred onto nitrocellulose membranes and saturated in 20 ml of saturation buffer consisting of TBS 1× (Tris Buffered Saline) containing 200 mM Tris, 1.4 M NaCl (pH 7.6), 5% no fat milk, 0.1% Tween 20 for 1 h. […] After washing to remove unbound antibodies, bound primary antibodies were detected by incubation for 1 h using secondary antibody against rabbit- and mouse IgG (Santa Cruz Biotechnology, SC-2357, 1:5000 and SC-2005, 1:5000, respectively). Unbound material was removed by washing and peroxidase activity was detected in a chemiluminescence assay (WesternBright ECL, Advansta, Menlo Park, USA). […]

Structure (SMILES)	IC50 [1]	phosphorylation of mTOR induced by P. acnes [2]
N#CC(c1ccc(Cl)cc1)c1c(Cl)cc(-n2ncc(=O)[nH]c2=O)cc1Cl (stereo not shown) [diclazuril, Diclazuril]	~3 µM	did not cause any changed
Cc1cccc(CN2CCN(C(c3ccccc3)c3ccc(Cl)cc3)CC2)c1 (stereo not shown) [meclozine, Meclozine]	~6 µM	did not cause any changed
